From patent US20230058623A1, “NOVEL HETEROARYL-TRIAZOLE COMPOUNDS AS PESTICIDES” (Bayer Aktiengesellschaft, priority 2019, published 2023)

Legend:
Format in all cases: in vivo
[1] = system: Rhipicephalus (Boophilus) microplus larvae (strain Parkhurst, resistant against synthetic pyrethroids); experiment: Rhipicephalus (Boophilus) microplus in-vitro contact test, larval cattle tick; details: after 48 hours, read-out: activity (efficacy: larvae dead or moribund); for pest or weed control at 1 µg/cm2, 100 g/ha: application rate 1 μg/cm^2 (=100 g/ha); for pest or weed control at 5 µg/cm2, 500 g/ha: application rate 5 μg/cm^2 (=500 g/ha)
How it was run: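 Acetone solutions were coated onto glass tube walls, giving 5 μg/cm^2 at 900 ppm. Once dry, 20–50 pyrethroid-resistant Parkhurst larvae were added per tube and held 48 h at 27 °C and 85% RH. Efficacy was scored by negative geotaxis as the percentage of dead or moribund larvae.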

[2] = system: adult brown dog ticks (Rhipicephalus sanguineus); experiment: Rhipicephalus sanguineus in-vitro contact test, adult brown dog ticks; details: application rate 5 μg/cm^2 (=500 g/ha), after 48 hours, read-out: activity (efficacy: ticks dead or moribund)
How it was run: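 Efficacy (%) reflects the fraction of adult ticks dead or moribund after 48 h of contact with a dried acetone film on tube walls at 5 μg/cm^2 (from 900 ppm). Moribund status was assessed by inability to climb away from heat at 45-50° C.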

[3] = system: adult flies Musca domestica strain WHO-N; experiment: Musca domestica test (MUSCDO surface treatment & contact assay); details: 24 hours after contact, read-out: efficacy (mortality); for mortality at 4 mg/m2: surface concentration 4 mg/m^2, exposure 30 minutes; for mortality at 20 mg/m2: surface concentration 20 mg/m^2, exposure 30 minutes
How it was run: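 Compound dissolved at 2 mg/ml in acetone with 2000 ppm RME, applied to glazed tile and dried; adult flies exposed on the surface for 30 min. Percent mortality scored 24 h after contact.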

[4] = system: cattle ticks (Rhipicephalus microplus) strain Parkhurst, SP-resistant; experiment: Rhipicephalus (Boophilus) microplus dip test; details: 168 h, application rate 100 ppm, egg deposition after 7 days, read-out: activity (efficacy: infertile eggs)
Description: Rhipicephalus (Boophilus) microplus—Dip Test
Test animal: cattle ticks (Rhipicephalus microplus) strain Parkhurst, SP-resistant
Solvent: dimethyl sulfoxide
To produce a suitable preparation of active compound, 10 mg of active compound are dissolved in 0.5 mL solvent, and the concentrate is diluted with water to the desired concentration.
This compound solution is pipetted into tubes. 8-10 engorged, adult, female cattle ticks (Rhipicephalus microplus) are placed in perforated tubes. These tubes are immersed in the aqueous compound solution until the ticks are completely moistened. After the liquid has drained off, the ticks are transferred to a filter paper in a plastic tray and stored in a climate chamber.
After 7 days egg deposition of fertile eggs is monitored. Eggs where fertility is not visible are stored in a climate chamber till hatching after about 42 days. An efficacy of 100% means all eggs are infertile; 0% means all eggs are fertile.

[5] = system: brown planthopper (Nilaparvata lugens); experiment: Nilaparvata lugens spray test; details: 96 h, after 4 days, rice plants; for mortality at 100 g/ha: application rate 100 g/ha; for mortality at 500 g/ha: application rate 500 g/ha
How it was run: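 Rice plants sprayed with compound diluted in water containing 1000 ppm emulsifier, then infested with brown planthopper. Mortality (%) scored after 4 days, 100% meaning all insects killed.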

[6] = system: two spotted spidermite (Tetranychus urticae); experiment: Tetranychus urticae spray test OP-resistant; details: foliar, 144 h, application rate 100 g/ha, after 6 days, French bean leaf disks
Description: Tetranychus urticae—Spray Test OP-Resistant
To produce a suitable preparation of active compound, 1 part by weight of active compound is mixed with the stated amount of solvents and is diluted with water, containing an emulsifier concentration of 1000 ppm, to the desired concentration. Further test concentrations are prepared by dilution with emulsifier containing water.
French bean (Phaseolus vulgaris) leaf disks infected with all instars of the two spotted spidermite (Tetranychus urticae) are sprayed with a preparation of the active ingredient of the desired concentration.
After 6 days mortality in % is determined. 100% means all spider mites have been killed and 0% means none of the spider mites have been killed.

[7] = system: adult mosquitoes Anopheles funestus strain FUMOZ-R; experiment: Anopheles funestus test (ANPHFU surface treatment & contact assay); details: 24 hours after contact, read-out: efficacy (mortality); for mortality at 20 mg/m2: surface concentration 20 mg/m^2, exposure 30 minutes; for mortality at 4 mg/m2: surface concentration 4 mg/m^2, exposure 30 minutes
Description: Anopheles funestus Test (ANPHFU Surface Treatment & Contact Assay)
(§1) Solvent: Aceton+2000 ppm rapeseed oil methyl ester (RME)
(§2) In order to produce a sufficient, active ingredient containing solution it is necessary to solve the test compound in the solvent-mix (acetone at 2 mg/ml/RME 2000 ppm). This solution is pipetted onto a glazed tile and after evaporation of the acetone, adult mosquitoes of the species Anopheles funestus strain FUMOZ-R (Hunt et al., Med. Vet. Entomol. 2005 September; 19(3): 271-275) are placed onto the dried surface. The exposure time is 30 minutes.
(§3) Mortality in percent (%) is determined 24 hours after contact of the insects to the treated surface. 100% mortality means that all tested insects are dead, whereas 0% means that no insect died.

[8] = system: adult mosquitoes Culex quinquefasciatus strain P00; experiment: Culex quinquefasciatus test (CULXFA surface treatment & contact assay); details: 24 hours after contact, read-out: efficacy (mortality); for mortality at 20 mg/m2: surface concentration 20 mg/m^2, exposure 30 minutes; for mortality at 4 mg/m2: surface concentration 4 mg/m^2, exposure 30 minutes
Description: Culex quinquefasciatus Test (CULXFA Surface Treatment & Contact Assay)
as §1
as §2, with “2 000” for “2000”, “Culex quinquefasciatus” for “Anopheles funestus”, “P00” for “FUMOZ-R (Hunt et al., Med. Vet. Entomol. 2005 September; 19(3): 271-275)”
as §3

Row | SMILES | pest or weed control at 1 µg/cm2, 100 g/ha [1] [%] | pest or weed control at 5 µg/cm2, 500 g/ha [1] [%] | pest or weed control at 5 µg/cm2, 500 g/ha [2] [%] | mortality at 4 mg/m2 [3] [%] | pest or weed control at 100 ppm [4] [%] | mortality at 100 g/ha [5] [%] | mortality at 500 g/ha [5] [%] | mortality at 100 g/ha [6] [%] | mortality at 20 mg/m2 [7] [%] | mortality at 20 mg/m2 [3] [%] | mortality at 4 mg/m2 [7] [%] | mortality at 20 mg/m2 [8] [%] | mortality at 4 mg/m2 [8] [%]
1 | Cc1nc([C@H](C)NC(=O)c2cc(C(F)(F)F)cc(C(F)(F)F)c2)n(-c2ncc(C(=O)N3CCOCC3)s2)n1 [Example I-4] | 100 | 100 | 100 | 80 to 100 | – | – | – | – | – | – | – | – | –
2 | C[C@H](NC(=O)c1cc(C(F)(F)F)cc(C(F)(F)F)c1)c1ncnn1-c1ccc(C(=O)N2CCOCC2)cn1 [Example I-2] | 100 | 100 | 100 | 80 to 100 | 100 | 90 | 100 | 90 | 80 to 100 | 80 to 100 | – | – | –
3 | C[C@@H]1CN(C(=O)c2ccc(-n3ncnc3[C@H](C)NC(=O)c3cc(C(F)(F)F)cc(C(F)(F)F)c3)nc2)CCO1 [Example I-69] | 100 | 100 | 100 | 80 to 100 | – | – | – | – | 80 to 100 | 80 to 100 | 80 to 100 | 80 to 100 | –
4 | Cc1nc([C@H](C)NC(=O)c2cc(Cl)cc(C(F)(F)F)c2)n(-c2ccc(C(=O)N3CC(C)OC(C)C3)cn2)n1 (some centres unmarked) [Example I-29] | 100 | 100 | 100 | – | – | – | – | – | – | 80 to 100 | – | – | –
5 | C[C@H](NC(=O)c1cc(C(F)(F)F)cc(C(F)(F)F)c1)c1ncnn1-c1ccc(C(=O)N2C[C@H](C)O[C@@H](C)C2)cn1 [Example I-94] | 100 | 100 | 100 | 80 to 100 | 100 | 90 | – | – | – | 80 to 100 | – | – | –
6 | C[C@@H]1CN(C(=O)c2ccc(-n3ncnc3[C@H](C)NC(=O)c3cc(Cl)cc(C(F)(F)F)c3)nc2)C[C@H](C)O1 [Example I-31] | 100 | 100 | 100 | – | – | – | – | – | – | 80 to 100 | – | – | –
7 | C[C@@H]1CN(C(=O)c2ccc(-n3ncnc3[C@H](C)NC(=O)c3cc(C(F)(F)F)cc(C(F)(F)F)c3)nc2)C[C@H](C)O1 [Example I-50] | 100 | 100 | 100 | 80 to 100 | 100 | 90 | – | – | 80 to 100 | 80 to 100 | 80 to 100 | 80 to 100 | –
8 | C[C@H](NC(=O)c1cc(Cl)cc(C(F)(F)F)c1)c1ncnn1-c1ccc(C(=O)N2CCSCC2)cn1 [Example I-36] | 100 | 100 | 100 | 80 to 100 | – | 100 | – | – | 80 to 100 | 80 to 100 | 80 to 100 | – | –
9 | C[C@H](NC(=O)c1cc(C(F)(F)F)cc(C(F)(F)F)c1)c1ncnn1-c1ccc(C(=O)N2CCCC2)cn1 [Example I-11] | 100 | 100 | 100 | – | – | – | – | 100 | – | 80 to 100 | – | – | –
10 | C[C@H](NC(=O)c1cc(C(F)(F)F)cc(C(F)(F)F)c1)c1ncnn1-c1ccc(C(=O)N2CCS(=O)(=O)CC2)cn1 [Example I-75] | 100 | 100 | 100 | 80 to 100 | – | – | 100 | – | 80 to 100 | 80 to 100 | 80 to 100 | 80 to 100 | 80 to 100
11 | C[C@@H]1CN(C(=O)c2ccc(-n3ncnc3[C@H](C)NC(=O)c3cc(C(F)(F)F)cc(C(F)(F)F)c3)nc2)C[C@@H](C)O1 [Example I-46] | 100 | 100 | 100 | – | 100 | – | – | – | – | 80 to 100 | – | – | –
12 | C[C@@H]1CN(C(=O)c2ccc(-n3ncnc3[C@H](C)NC(=O)c3cc(OC(F)(F)F)cc(C4CC4)c3)nc2)C[C@H](C)O1 [Example I-114] | 100 | 100 | 100 | 80 to 100 | 100 | – | – | – | – | 80 to 100 | – | – | –
13 | COC1CN(C(=O)c2ccc(-n3ncnc3[C@H](C)NC(=O)c3cc(C(F)(F)F)cc(C(F)(F)F)c3)nc2)C1 [Example I-15] | 100 | 100 | 100 | – | 100 | – | – | – | – | 80 to 100 | – | – | –
14 | COC1CCCN(C(=O)c2ccc(-n3ncnc3[C@H](C)NC(=O)c3cc(C(F)(F)F)cc(C(F)(F)F)c3)nc2)C1 (some centres unmarked) [Example I-8] | 100 | 100 | 100 | – | 80 | 90 | – | – | – | 80 to 100 | – | – | –
15 | Cc1nc([C@H](C)NC(=O)c2cc(C(F)(F)F)cc(C(F)(F)F)c2)n(-c2ccc(C(=O)N3C[C@@H](C)O[C@@H](C)C3)cn2)n1 [Example I-45] | 100 | 100 | 100 | 80 to 100 | 80 | – | – | – | – | 80 to 100 | – | – | –
16 | Cc1nc([C@H](C)NC(=O)c2cc(C(F)(F)F)cc(C(F)(F)F)c2)n(-c2ccc(C(=O)N3CCS(=O)(=O)CC3)cn2)n1 [Example I-76] | 100 | 100 | 100 | 80 to 100 | – | – | 100 | – | 80 to 100 | 80 to 100 | 80 to 100 | 80 to 100 | 80 to 100
17 | C[C@H](NC(=O)c1cc(Cl)cc(C(F)(F)F)c1)c1ncnn1-c1ccc(C(=O)N2CCS(=O)(=O)CC2)cn1 [Example I-35] | 100 | 100 | 100 | – | – | 100 | – | – | 80 to 100 | – | – | – | –
